Data on 26 compounds can be found in ChEMBL document CHEMBL3112436, “Discovery of a novel series of indoline carbamate and indolinylpyrimidine derivatives as potent GPR119 agonists” (Bioorg Med Chem, 2014).

Series [1] deals with T1, Glucose-dependent insulinotropic receptor (Homo sapiens, UniProt Q8TDV5).
T1 sequence (Q8TDV5 whole entry): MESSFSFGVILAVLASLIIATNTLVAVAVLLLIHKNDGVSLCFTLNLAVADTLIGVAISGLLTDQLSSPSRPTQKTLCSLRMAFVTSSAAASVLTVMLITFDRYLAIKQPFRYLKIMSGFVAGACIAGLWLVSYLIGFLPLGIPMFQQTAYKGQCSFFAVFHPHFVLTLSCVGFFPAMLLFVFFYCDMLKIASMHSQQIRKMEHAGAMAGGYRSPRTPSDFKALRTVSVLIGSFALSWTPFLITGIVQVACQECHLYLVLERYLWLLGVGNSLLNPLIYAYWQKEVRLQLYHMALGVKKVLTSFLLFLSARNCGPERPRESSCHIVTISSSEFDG
Kind of series: Agonist activity at human GPR119 transfected in CHO cells assessed as cAMP accumulation after 2 hrs by luciferase reporter gene assay. The format is functional, cell-based.

The nature of series [2]: 1-Octanol-water partition coefficient, log D of the compound at pH 7.4 by HPLC analysis. The format is physicochemical.
The nature of series [3]: Aqueous solubility of the compound in buffer at pH 6.8 by HPLC analysis. The format is physicochemical.
Series [4] relates to Rattus norvegicus. Kind of series: Antidiabetic activity in Wistar fatty rat type 2 diabetic model assessed as increase in insulin secretion at 30 mg/kg, po administered 1 hr prior to glucose challenge by oral glucose tolerance test. Also noted: dose 30 mg/kg. Particulars: TDE = time-dependent effect. The format is functional, organism-based.
Series [5] deals with Rattus norvegicus. The series is described as follows: Antidiabetic activity in Wistar fatty rat type 2 diabetic model assessed as reduction of plasma glucose level at 30 mg/kg, po administered 1 hr prior to glucose challenge by oral glucose tolerance test. Particulars: TDE = time-dependent effect. Also noted: dose 30 mg/kg. It counts as functional, organism-based.
Series [6] deals with Rattus norvegicus. The series is described as follows: Antidiabetic activity in Wistar fatty rat type 2 diabetic model assessed as reduction of plasma glucose level at 10 mg/kg, po administered 1 hr prior to glucose challenge by oral glucose tolerance test. It counts as functional, organism-based. Also noted: dose 10 mg/kg. Conditions: TDE = time-dependent effect.
For series [7], the system named is Rattus norvegicus. The series is described as follows: Antidiabetic activity in Wistar fatty rat type 2 diabetic model assessed as increase in insulin secretion at 10 mg/kg, po administered 1 hr prior to glucose challenge by oral glucose tolerance test. The format is functional, organism-based. Also noted: dose 10 mg/kg. Particulars: TDE = time-dependent effect.

The structures appear in SMILES notation. Converted amounts (≈) assume the structure as drawn.

The EC50 is the midpoint of the concentration-response curve. Usually logD stands for the decadic logarithm of the distribution of all forms, ionised or not, between an organic phase and buffer at a given pH. Lower therefore signals lower lipophilicity. For the compound `CC(C)OC(=O)N1CCC(Oc2ccnc(N3CCc4cc(S(C)(=O)=O)ccc43)c2)CC1`, in series [1], the 50% effective concentration (EC50) turned out to be 87 nM. Moreover, the log distribution coefficient (logD) in series [2] was determined as 3.
One may read the solubility as the dissolved amount per volume that the medium holds. Higher therefore signals much dissolved substance. For the compound `CC(C)(C)OC(=O)N1CCC(CCOC(=O)N2CCc3cc(S(C)(=O)=O)cc(F)c32)CC1`, the concentration in solution in series [3] (solubility) was 42 µg/mL (≈ 89.3 µM). Besides, the EC50 in series [1] came to 25 nM. Also, in series [2], the logD was found to be 3.
Take `CCc1cnc(N2CCC(Oc3cc(N4CCc5cc(S(C)(=O)=O)ccc54)ncn3)CC2)nc1`: the EC50 in series [1] turned out to be 11 nM. Also, the logD in series [2] was determined as 3.8.
Turning to `Cc1c(S(C)(=O)=O)ccc2c1CCN2C(=O)OCCC1CCN(C(=O)OC(C)(C)C)CC1`, the concentration in solution in series [3] (solubility) came to 0.17 µg/mL (≈ 0.364 µM). Further, the EC50 in series [1] amounted to 770 nM. Moreover, the logD in series [2] turned out to be 3.4.
For `CC(CC1CCN(C(=O)OC(C)(C)C)CC1)OC(=O)N1CCc2cc(S(C)(=O)=O)ccc21` (racemic), in series [1], the half-maximal effective concentration (EC50) is 2600 nM. In series [2], this compound came in with a pH-dependent lipophilicity (logD) of 3.4.
In series [3], `COc1cc2c(cc1S(C)(=O)=O)CCN2C(=O)OCCC1CCN(C(=O)OC(C)(C)C)CC1` had a solubility of 45 µg/mL (≈ 93.2 µM). Also, the half-maximal effective concentration (EC50) in series [1] worked out at 4800 nM. In addition, the logD in series [2] was found to be 3.3.
Take `CC(C)(C)OC(=O)N1CCC(CCOC(=O)N2CCc3cc(S(C)(=O)=O)ccc32)CC1`: the EC50 in series [1] came out at 68 nM. Besides, the pH-dependent lipophilicity (logD) in series [2] came to 3.1.
The like results for `CC(C)(C)OC(=O)N1CCC(CCCC(=O)N2CCc3cc(S(C)(=O)=O)ccc32)CC1` were, in that order, 120 nM and 2.9.
As to `CC(C)(C)OC(=O)N1CCC(n2ccc3c(N4CCc5cc(S(C)(=O)=O)ccc54)ncnc32)CC1`, the half-maximal effective concentration (EC50) in series [1] was found to be 16 nM.
On to `CC(C)OC(=O)N1CCC(Oc2cc(N3CCc4cc(S(C)(=O)=O)ccc43)ncn2)CC1`, for which, in series [1], the concentration giving a half-maximal response (EC50) came out at 17 nM. Also, in series [2], the pH-dependent lipophilicity (logD) was 3.1.
Turning to `CC(C)OC(=O)N1CCC(Oc2ccnc(N3CCc4cc(S(C)(=O)=O)ccc43)n2)CC1`, the concentration for a half-maximal effect (EC50) in series [1] was determined as 8800 nM. The same compound came in with a logD in series [2] of 3.5.
Take `CC(C)(C)OC(=O)N1CCC(CCOC(=O)N2CCc3cc(S(C)(=O)=O)c(F)cc32)CC1`: the solubility in series [3] stood at 0.67 µg/mL (≈ 1.42 µM). For the same compound, the EC50 in series [1] was determined as 160 nM. This compound also showed a logD in series [2] of 3.3.
As for `CC(C)(C)OC(=O)N1CCC(C(O)COC(=O)N2CCc3cc(S(C)(=O)=O)ccc32)CC1` (racemic), the concentration for a half-maximal effect (EC50) in series [1] came to 2400 nM. For the same compound, in series [2], the pH-dependent lipophilicity (logD) came to 2.1.
The like results for `CC(C)(C)OC(=O)N1CCC(CCCCN2CCc3cc(S(C)(=O)=O)ccc32)CC1` were, in that order, 1400 nM and 4.1.
In series [3], `Cc1cc(S(C)(=O)=O)cc2c1N(C(=O)OCCC1CCN(C(=O)OC(C)(C)C)CC1)CC2` returned a solubility of 44 µg/mL (≈ 94.3 µM). The EC50 in series [1] came out at 44 nM. In series [2], this compound gave a pH-dependent lipophilicity (logD) of 3.2.
`CC(C)(C)OC(=O)N1CCC(CCOC(=O)N2CCc3c2ccc(S(C)(=O)=O)c3F)CC1` returned a solubility in series [3] of 0.81 µg/mL (≈ 1.72 µM). The EC50 in series [1] was 25 nM. For the same compound, the logD in series [2] is 3.2.
Take `CCc1cnc(N2CCC(C(C)COC(=O)N3CCc4cc(S(C)(=O)=O)cc(F)c43)CC2)nc1` (racemic): the Activity entry in the series with Rattus norvegicus [4] and in the series with Rattus norvegicus [5] was “tde” in each case. Moreover, the concentration in solution in series [3] (solubility) was 3.8 µg/mL (≈ 7.75 µM). Further, the EC50 in series [1] was 3.9 nM. This compound registered a logD in series [2] of 3.6.
On to `CC(C)OC(=O)N1CCC(Oc2ncnc(N3CCc4cc(S(C)(=O)=O)ccc43)n2)CC1`, for which the EC50 in series [1] came out at 520 nM. In series [2], this compound registered a logD of 2.6.
Take `CC(C)(C)OC(=O)N1CCC(CCOC(=O)N2CCc3c2ccc(S(C)(=O)=O)c3Cl)CC1`: the concentration in solution in series [3] (solubility) was 0.21 µg/mL (≈ 0.431 µM). Further, in series [1], the half-maximal effective concentration (EC50) is 530 nM. In series [2], the logD is 3.6.
On to `CC(COC(=O)N1CCc2cc(S(C)(=O)=O)ccc21)C1CCN(C(=O)OC(C)(C)C)CC1` (racemic), for which the EC50 in series [1] was 8.4 nM. Further, the logD in series [2] amounted to 3.4.
Turning to `CC(C)c1noc(N2CCC(Oc3cc(N4CCc5cc(S(C)(=O)=O)ccc54)ncn3)CC2)n1`, the EC50 in series [1] was determined as 7.7 nM. Also, the Activity entry in the series on Rattus norvegicus [6] and with Rattus norvegicus [7] was “tde” each time. In series [2], the pH-dependent lipophilicity (logD) is 3.1.
`CC(C)OC(=O)N1CCC(Oc2cccc(N3CCc4cc(S(C)(=O)=O)ccc43)c2)CC1`: in series [1], the concentration giving a half-maximal response (EC50) stood at 490 nM. Besides, the pH-dependent lipophilicity (logD) in series [2] was 3.5.
Turning to `COc1cc(S(C)(=O)=O)cc2c1N(C(=O)OCCC1CCN(C(=O)OC(C)(C)C)CC1)CC2`, the concentration in solution in series [3] (solubility) was 64 µg/mL (≈ 133 µM). In series [1], the EC50 stood at 1700 nM. For the same compound, in series [2], the logD was 2.8.
The like results for `CC(C)(C)OC(=O)N1CCC(CCOC(=O)N2CCc3cc(S(C)(=O)=O)cc(Cl)c32)CC1` were, in that order, 21 µg/mL (≈ 43.1 µM), 21 nM and 3.2.
The compound `CC(COC(=O)N1CCc2cc(S(C)(=O)=O)cc(F)c21)C1CCN(C(=O)OC(C)(C)C)CC1` (racemic) showed a solubility in series [3] of 21 µg/mL (≈ 43.3 µM). The EC50 in series [1] came out at 6.8 nM. The logD in series [2] was 3.3.
In the case of `CC(C)(C)OC(=O)N1CCC(CCNC(=O)N2CCc3cc(S(C)(=O)=O)ccc32)CC1`, the half-maximal effective concentration (EC50) in series [1] was found to be 2500 nM. For the same compound, the logD in series [2] worked out at 2.3.
